ChEMBL document CHEMBL4368854, “Assessment of a bifendate derivative bearing a 6,7-dihydro-dibenzo[c,e]azepine scaffold as a potential anti-metastatic agent” (Medchemcomm, 2018)
pIC50: −log10 of the molar value. The source made the active and inactive calls. The calls are words filed in the database; no cut-off is given here.

Columns and labels:
[1] = target: 72 kDa type IV collagenase (Homo sapiens) (UniProt P08253); test: Inhibition of MMP2 activity in human MDA-MB-231 cells measured after 24 hrs by coomassie brilliant blue staining based gelatin zymographic method; type: cell-based
Chain of 72 kDa type IV collagenase (Homo sapiens) (P08253 110-660 limits assumed): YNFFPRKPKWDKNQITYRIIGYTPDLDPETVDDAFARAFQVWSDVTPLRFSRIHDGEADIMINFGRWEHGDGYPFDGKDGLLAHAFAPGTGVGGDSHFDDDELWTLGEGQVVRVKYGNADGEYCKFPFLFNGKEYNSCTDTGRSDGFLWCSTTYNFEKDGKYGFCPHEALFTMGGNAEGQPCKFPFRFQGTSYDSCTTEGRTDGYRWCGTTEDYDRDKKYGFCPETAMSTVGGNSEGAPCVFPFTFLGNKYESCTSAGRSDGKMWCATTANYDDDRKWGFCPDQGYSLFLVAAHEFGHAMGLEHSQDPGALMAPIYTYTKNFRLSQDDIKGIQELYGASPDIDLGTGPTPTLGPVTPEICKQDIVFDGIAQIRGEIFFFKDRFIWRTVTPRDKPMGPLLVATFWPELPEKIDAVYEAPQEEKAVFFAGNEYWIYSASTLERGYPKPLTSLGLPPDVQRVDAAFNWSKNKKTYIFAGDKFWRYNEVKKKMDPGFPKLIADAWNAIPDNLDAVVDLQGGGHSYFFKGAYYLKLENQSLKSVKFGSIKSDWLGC

[2] = tested on: MDA-MB-231; test: Down regulation of MMP2 expression in human MDA-MB-231 cells after 24 hrs by Western blot analysis; type: functional, cell-based
[3] = tested on: MDA-MB-231; test: Antimigratory activity against human MDA-MB-231 cells at 15 uM after 24 hrs by crystal violet staining based transwell assay relative to control; type: functional
[4] = tested on: MDA-MB-231; test: Anti-invasive activity against human MDA-MB-231 cells at 45 uM after 24 hrs by crystal violet staining based matrigel coated transwell assay relative to control; type: functional
[5] = tested on: MDA-MB-231; test: Antimigratory activity against human MDA-MB-231 cells assessed as reduction in cell migration towards wound area at 5 to 45 uM measured up to 24 hrs by inverted microscopic analysis; type: functional, cell-based
[6] = tested on: MDA-MB-231; test: Anti-invasive activity against human MDA-MB-231 cells at 15 uM after 24 hrs by crystal violet staining based matrigel coated transwell assay relative to control; type: functional
[7] = tested on: MDA-MB-231; test: Down regulation of MMP9 expression in human MDA-MB-231 cells after 24 hrs by Western blot analysis; type: functional, cell-based
[8] = target: 72 kDa type IV collagenase (Homo sapiens) (UniProt P08253); test: Inhibition of MMP2 activity in human MDA-MB-231 cells at 45 uM measured after 24 hrs by coomassie brilliant blue staining based gelatin zymographic method; type: cell-based
[9] = tested on: MDA-MB-231; test: Antimigratory activity against human MDA-MB-231 cells at 45 uM after 24 hrs by crystal violet staining based transwell assay relative to control; type: functional
[10] = tested on: MDA-MB-231; test: Cytotoxicity against human MDA-MB-231 cells after 72 hrs by MTT assay; type: functional, cell-based; conditions: MDA-MB-231, 72 h
[11] = target: Matrix metalloproteinase-9 (Homo sapiens) (UniProt P14780); test: Inhibition of MMP9 activity in human MDA-MB-231 cells measured after 24 hrs by coomassie brilliant blue staining based gelatin zymographic method; type: cell-based
Chain of Matrix metalloproteinase-9 (Homo sapiens) (P14780 whole entry): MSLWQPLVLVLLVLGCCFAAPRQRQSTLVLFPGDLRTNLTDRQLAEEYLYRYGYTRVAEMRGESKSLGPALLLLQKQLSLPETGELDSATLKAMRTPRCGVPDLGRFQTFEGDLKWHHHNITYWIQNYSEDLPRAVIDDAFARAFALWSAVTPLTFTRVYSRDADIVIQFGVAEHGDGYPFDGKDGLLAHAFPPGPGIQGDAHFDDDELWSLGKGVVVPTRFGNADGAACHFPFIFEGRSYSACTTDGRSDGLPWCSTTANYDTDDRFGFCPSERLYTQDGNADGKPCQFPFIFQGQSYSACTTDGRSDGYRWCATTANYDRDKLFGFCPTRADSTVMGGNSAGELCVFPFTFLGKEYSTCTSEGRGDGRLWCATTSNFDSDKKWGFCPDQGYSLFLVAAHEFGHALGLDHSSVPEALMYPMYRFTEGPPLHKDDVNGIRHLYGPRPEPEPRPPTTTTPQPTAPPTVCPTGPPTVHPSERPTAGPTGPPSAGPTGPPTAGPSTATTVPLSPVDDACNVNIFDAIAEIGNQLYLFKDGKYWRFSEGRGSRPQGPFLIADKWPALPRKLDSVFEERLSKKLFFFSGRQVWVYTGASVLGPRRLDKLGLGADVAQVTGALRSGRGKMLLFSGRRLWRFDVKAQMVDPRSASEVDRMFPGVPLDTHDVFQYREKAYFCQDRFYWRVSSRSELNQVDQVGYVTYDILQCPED

[12] = target: Matrix metalloproteinase-9 (Homo sapiens) (UniProt P14780); test: Inhibition of MMP9 activity in human MDA-MB-231 cells at 45 uM measured after 24 hrs by coomassie brilliant blue staining based gelatin zymographic method; type: cell-based
[13] = tested on: MDA-MB-231; test: Antimigratory activity against human MDA-MB-231 cells assessed as reduction in cell migration towards wound area at 45 uM measured up to 24 hrs by inverted microscopic analysis; type: functional, cell-based

Row | inhibition [1] | inhibition [8] | inhibition [11] | inhibition [12] | SMILES | Activity [2] | Activity [3] | Activity [4] | Activity [5] | Activity [6] | Activity [7] | Activity [9] | pIC50 [10] | Activity [13]
1 | Dose-dependent effect | 56.9% | Dose-dependent effect | 30.8% | COc1cc2c(c3c1OCO3)-c1c(cc(OC)c3c1OCO3)CN(CCc1ccc3c(c1)OCO3)C2 | Dose-dependent effect | 32.9% | 71.2% | Active | <=54.4% | Dose-dependent effect | 47.5% | 4.06 | –
2 | – | – | – | – | COC(=O)c1cc(OC)c2c(c1-c1c(C(=O)OC)cc(OC)c3c1OCO3)OCO2 | – | – | – | – | – | – | – | – | Active
